Target: T1, Tyrosinase (Agaricus bisporus, UniProt O42713)
T1 sequence (O42713 whole entry): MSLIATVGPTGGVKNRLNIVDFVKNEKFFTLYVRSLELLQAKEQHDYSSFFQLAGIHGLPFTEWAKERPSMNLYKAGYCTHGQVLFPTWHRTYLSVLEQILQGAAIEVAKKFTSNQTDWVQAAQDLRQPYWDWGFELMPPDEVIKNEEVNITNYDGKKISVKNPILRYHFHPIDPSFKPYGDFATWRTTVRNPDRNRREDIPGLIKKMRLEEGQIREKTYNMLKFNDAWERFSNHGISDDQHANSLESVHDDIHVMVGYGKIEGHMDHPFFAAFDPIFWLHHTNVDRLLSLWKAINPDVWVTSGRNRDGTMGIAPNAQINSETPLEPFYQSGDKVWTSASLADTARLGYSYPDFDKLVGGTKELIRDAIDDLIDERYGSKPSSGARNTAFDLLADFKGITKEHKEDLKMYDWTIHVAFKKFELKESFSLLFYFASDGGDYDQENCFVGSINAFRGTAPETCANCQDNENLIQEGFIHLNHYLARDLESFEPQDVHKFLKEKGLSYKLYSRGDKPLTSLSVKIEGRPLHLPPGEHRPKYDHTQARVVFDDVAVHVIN
Assay: Inhibition of diphenolase activity of mushroom tyrosinase preincubated for 10 mins followed by addition of L-DOPA measured for 5 mins by spectrophotometry

Compound	IC50 [µM]
O=C(O)CSc1nnc(NC(=S)Nc2ccccc2)s1	27.7
O=C(O)CSc1nnc(NC(=S)Nc2ccc(F)c(F)c2)s1	20.5
O=C(O)CSc1nnc(NC(=S)Nc2ccc(F)cc2F)s1	20.1
COc1ccccc1NC(=S)Nc1nnc(SCC(=O)O)s1	27.1
O=C(O)CSc1nnc(NC(=S)Nc2cccc(F)c2)s1	31.3
O=C(O)CSc1nnc(NC(=S)Nc2cccc(C(F)(F)F)c2)s1	6.13

Results, then the molecule that gave them:

IC50 [µM]	Compound
26.3	O=C(O)CSc1nnc(NC(=S)Nc2ccc(Cl)cc2)s1
20.9	O=C(O)CSc1nnc(NC(=S)Nc2ccc(F)cc2)s1
33.9	O=C(O)CSc1nnc(NC(=S)Nc2ccc(F)c(Cl)c2)s1
59.7	O=C(O)CSc1nnc(NC(=S)Nc2cccc(Cl)c2)s1
54.4	Cc1ccc(NC(=S)Nc2nnc(SCC(=O)O)s2)cc1

Target: T1, Tyrosinase
Assay: Noncompetitive inhibition of diphenolase activity of mushroom tyrosinase preincubated for 10 mins followed by addition of L-DOPA measured for 5 mins by Lineweaver-Burk plot analysis

Ki [µM]	Compound
8.13	O=C(O)CSc1nnc(NC(=S)Nc2cccc(C(F)(F)F)c2)s1

From ChEMBL document CHEMBL3779795, “Design and synthesis of thiourea derivatives with sulfur-containing heterocyclic scaffolds as potential tyrosinase inhibitors” (Bioorg Med Chem, 2016)
